The results in this text go back to EPA's ToxValDB 9.5 (doi:10.2903/j.efsa.2009.1341).

In one data set the test system is Apis mellifera. Particulars: acute; duration: 48 hours; inhalation; unspecified; mortality.
For the next data set, the system named is Canidae. Particulars: short-term; duration: 2 weeks; Dog Other.
For the next data set, the system named is Cyprinodon variegatus. To be noted: acute; duration: 96 hours; mortality.
The test system of a further data set is Daphnia magna. Particulars: chronic/long-term; duration: 21 days; mortality.
The test system of another data set is Mus musculus. Particulars: chronic; duration: 2 years; inhalation; histopathology: nonneoplastic.
A further data set has as its system Pimephales promelas. To be noted: chronic/long-term; duration: 33 days; growth.
Another data set concerns Rattus norvegicus. Particulars: for LD50: acute.

Each structure is given as a SMILES string. Converted amounts (≈) assume the structure as drawn.

In general, NOAEL refers to the highest tested level that showed no adverse finding. For `ClC=CCCl` [1,3-Dichloropropene], the NOEC with Apis mellifera is 115 mg/m3; in the data set with Daphnia magna, 0.0701 mg/L; with Pimephales promelas, 0.032 mg/L; in the data set on Tagia sp. (chronic/long-term, duration: 56 days, reproduction), 770 mg/kg. For the same compound, the no observed adverse effect level (NOAEL) in the data set with Canidae is 20 mg/kg-day; in the data set on Mus musculus, 1.1 mg/kg-day; in the data set with Rattus norvegicus (chronic, duration: 2 years, oral, diet, histopathology: neoplastic), 2.5 mg/kg-day; with Rattus norvegicus (chronic, oral, mortality), 2.5 mg/kg-day; with Rattus norvegicus (reproduction developmental, inhalation, reproduction), below 0.0908 mg/L; in the data set on Rattus norvegicus (subchronic, duration: 13 weeks, inhalation, histopathology: nonneoplastic), 9.72 mg/kg-day. In the data set with Rattus norvegicus (subchronic, duration: 90 days, oral, mortality), the NOAEL turned out to be 5 mg/kg-day. The LC50 amounted to 0.87 µg/mL (≈ 7.84 µM) in the data set with Cyprinodon variegatus and 55.6 mg/kg in the data set with Tagia sp. (acute, duration: 14 days, mortality). For the same compound, the LD50 in the data set with Rattus norvegicus (inhalation, mortality) stood at 2.7 mg/L; with Rattus norvegicus (oral, mortality), 130 mg/kg.
